For 23 molecules, Activity and inhibition results are on record in ChEMBL document CHEMBL6109096, “Synthesis, anti-allergic rhinitis evaluation and mechanism investigation of novel 1,2,4-triazole-enamides as CB1 R antagonist” (Eur J Med Chem, 2025).

Activity calls are given as the source filed them. The rule behind the calls is not given here.

The subject of data set [1] is RAW264.7. The data set is described as follows: Cytotoxicity against mouse RAW264.7 cells assessed as reduction in cell viability at 10 uM incubated for 24 hrs by CCK-8 assay. Format: toxicity, cell-based. The conditions noted are these: raw264.7, 24 h.
The test system of data set [2] is RAW264.7. The data set is described as follows: Inhibition of IL-1beta (unknown origin) in mouse RAW264.7 relative to control. Format: cell-based. The conditions noted are these: dose or concentration not given here.
Data set [3] relates to RAW264.7. The data set is described as follows: Inhibition of IL-6 (unknown origin) in mouse RAW264.7 relative to control. Format: cell-based. The following applies: dose or concentration not given here.
In data set [4] the test system is Mus musculus. The data set is described as follows: Anti-inflammatory activity in ovalbumin-induced allergic rhinitis male Balb/c mouse model assessed as reduction in sneezing at 5 mg/kg, po administered via gavage for 7 days. It counts as functional, organism-based. The conditions noted are these: time 7.0 day.
For data set [5], the system named is Mus musculus. The data set is described as follows: Anti-inflammatory activity in ovalbumin-induced allergic rhinitis male Balb/c mouse model assessed as reduction in nose scratching at 5 mg/kg, po administered via gavage for 7 days. It counts as functional, organism-based. The following applies: time 7.0 day.
Data set [6] concerns Mus musculus. The data set is described as follows: Anti-inflammatory activity in ovalbumin-induced allergic rhinitis male Balb/c mouse model assessed as reduction in IgE expression at 5 mg/kg, po administered via gavage for 7 days (reference value: 0.268 +/- 0.045). The conditions noted are these: time 7 day. It counts as functional.
Data set [7] has as its system Mus musculus. The data set is described as follows: Anti-inflammatory activity in ovalbumin-induced allergic rhinitis male Balb/c mouse model assessed as reduction in serum histamine expression at 5 mg/kg, po administered via gavage for 7 days by ELISA. It counts as functional, organism-based. The following applies: time 7.0 day.
In data set [8] the test system is Mus musculus. The data set is described as follows: Anti-inflammatory activity in ovalbumin-induced allergic rhinitis male Balb/c mouse model assessed as reduction in IL-4 expression in nasal lavage fluid at 5 mg/kg, po administered via gavage for 7 days by ELISA. The conditions noted are these: time 7.0 day. It counts as functional, organism-based.
For data set [9], the system named is Mus musculus. The data set is described as follows: Anti-inflammatory activity in ovalbumin-induced allergic rhinitis male Balb/c mouse assessed as reduction in number of cells on nasal lavage fluid at 5 mg/kg, po administered via gavage for 7 days by giemsa staining based analysis. Format: functional, organism-based. The conditions noted are these: time 7.0 day.

The subject of data set [10] is Mus musculus. The data set is described as follows: Anti-inflammatory activity in ovalbumin-induced allergic rhinitis male Balb/c mouse assessed as reduction in number of mast cells on nasal lavage fluid at 5 mg/kg, po administered via gavage for 7 days by giemsa staining based analysis. It counts as functional, organism-based. The conditions noted are these: time 7.0 day.

Data set [11] relates to Mus musculus. The data set is described as follows: Anti-inflammatory activity in ovalbumin-induced allergic rhinitis male Balb/c mouse assessed as reduction in number of eosinophils on nasal lavage fluid at 5 mg/kg, po administered via gavage for 7 days by giemsa staining based analysis. Format: functional, organism-based. The following applies: time 7.0 day.
For data set [12], the system named is Mus musculus. The data set is described as follows: Anti-inflammatory activity in ovalbumin-induced allergic rhinitis male Balb/c mouse assessed as reduction in inflammation of nasal mucosal tissue at 5 mg/kg, po administered via gavage for 7 days by H and E staining based analysis. Format: functional, organism-based. The conditions noted are these: time 7.0 day.

Data set [13] has as its system Mus musculus. The data set is described as follows: Anti-inflammatory activity in ovalbumin-induced allergic rhinitis male Balb/c mouse assessed as reduction in number of goblet cells in nasal mucosal tissues at 5 mg/kg, po administered via gavage for 7 days by PAS staining based analysis. Format: functional, organism-based. The conditions noted are these: time 7.0 day.

Data set [14] has as its system RAW264.7. The data set is described as follows: Downregulation of P-P65 protein expression in LPS-induced mouse RAW264.7 cells by Western blotting analysis. It counts as functional, cell-based.
Data set [15] has as its system RAW264.7. The data set is described as follows: Downregulation of P-IKBalpha protein expression in LPS-induced mouse RAW264.7 cells by Western blotting analysis. Format: functional, cell-based.
For data set [16], the system named is RAW264.7. The data set is described as follows: Downregulation of p-P38 protein expression in LPS-induced mouse RAW264.7 cells by Western blotting analysis. It counts as functional, cell-based.
Data set [17] concerns RAW264.7. The data set is described as follows: Downregulation of p-JNK protein expression in LPS-induced mouse RAW264.7 cells by Western blotting analysis. Format: functional, cell-based.
The subject of data set [18] is RAW264.7. The data set is described as follows: Downregulation of p-ERK protein expression in LPS-induced mouse RAW264.7 cells by Western blotting analysis. Format: functional, cell-based.
Data set [19] concerns RAW264.7. The data set is described as follows: Downregulation of p-P38 expression in mouse RAW264.7 cells by immunofluorescence staining based analysis. Format: functional, cell-based.
The test system of data set [20] is RAW264.7. The data set is described as follows: Downregulation of p-P38 intranuclear expression in mouse RAW264.7 cells by immunofluorescence staining based analysis. It counts as functional, cell-based.
Data set [21] has as its system Mus musculus. The data set is described as follows: Anti-inflammatory activity in ovalbumin-induced allergic rhinitis male Balb/c mouse model assessed as decrease in p-p38 intranuclear expression in nasal mucosal at 5 mg/kg, po administered via gavage for 7 days by immunofluorescence staining based analysis. It counts as functional, organism-based. The following applies: time 7.0 day.

Data set [22] deals with RAW264.7. The data set is described as follows: Downregulation of CB1 R expression in LPS-induced mouse RAW264.7 cells by immunofluorescence staining based analysis. Format: functional, cell-based.

`CCCc1nc(C(=O)N(C)/C=C\c2ccccc2)nn1-c1ccccc1`: the Activity entry in the data set on RAW264.7 [1] is on record as “Non-toxic”.
Same read-out and setting: then `CN(/C=C\c1ccccc1)C(=O)c1nc(-c2ccccc2)n(-c2ccccc2)n1`, with “Non-toxic”.
Take `CN(/C=C\c1ccccc1)C(=O)c1nc(-c2cccc3ccccc23)n(-c2ccccc2)n1`: in the data set on RAW264.7 [1], the Activity result is “Non-toxic”. Besides, the inhibition in the data set on RAW264.7 [2] is 74%; with RAW264.7 [3], 86%.
For `CN(/C=C\c1ccccc1)C(=O)c1nc(-c2ccccc2Cl)n(-c2ccccc2)n1`, the Activity entry in the data set on RAW264.7 [1] is on record as “Non-toxic”.
Consider `CN(/C=C\c1ccccc1)C(=O)c1ncn(-c2ccccc2)n1`, for which, in the data set with RAW264.7 [1], the Activity result is recorded as “Non-toxic”.
With `CN(/C=C\c1ccccc1)C(=O)c1nc(-c2cccc(Cl)c2)n(-c2ccccc2)n1`, the Activity result in the data set on RAW264.7 [1] is listed as “Non-toxic”.
Take `CN(/C=C\c1ccccc1)C(=O)c1nc(-c2ccco2)n(-c2ccccc2)n1`: in the data set on RAW264.7 [1], the Activity entry is listed as “Non-toxic”.
For the molecule `CN(/C=C\c1ccccc1)C(=O)c1nc(-c2ccc3ccccc3c2)n(-c2ccccc2)n1`, the Activity result with RAW264.7 [1] is “Non-toxic”.
On to `CN(/C=C\c1ccccc1)C(=O)c1nc(-c2ccc(C(F)(F)F)cc2)n(-c2ccccc2)n1`, for which the Activity entry in the data set with RAW264.7 [1] is recorded as “Non-toxic”.
On the same count and under the same terms, then `Cc1cc(C)c(-c2nc(C(=O)N(C)/C=C\c3ccccc3)nn2-c2ccccc2)c(C)c1`, with “Non-toxic”; and `CN(/C=C\c1ccccc1)C(=O)c1nc(-c2ccc(Br)cc2)n(-c2ccccc2)n1`, with “Non-toxic”; and `Cc1cccc(-c2nc(C(=O)N(C)/C=C\c3ccccc3)nn2-c2ccccc2)c1`, with “Non-toxic”.
For `CN(/C=C\c1ccccc1)C(=O)c1nc(-c2ccc(Cl)cc2)n(-c2ccccc2)n1`, in the data set on RAW264.7 [1], the Activity result is “Non-toxic”.
Same read-out and setting: then `CCc1nc(C(=O)N(C)/C=C\c2ccccc2)nn1-c1ccccc1`, with “Non-toxic”.
On the same count and under the same terms, under `Cc1ccccc1-c1nc(C(=O)N(C)/C=C\c2ccccc2)nn1-c1ccccc1` stands “Non-toxic”; under `CC(C)c1nc(C(=O)N(C)/C=C\c2ccccc2)nn1-c1ccccc1`, “Non-toxic”.
Take `CN(/C=C\c1ccccc1)C(=O)/C=C/c1ccccc1`: the inhibition in the data set on RAW264.7 [2] is 19%.
As for `CN(/C=C\c1ccccc1)C(=O)c1nc(CC(C)(C)C)n(-c2ccccc2)n1`, the Activity entry with RAW264.7 [1] is on record as “Non-toxic”.
For the molecule `Cc1ccc(-c2nc(C(=O)N(C)/C=C\c3ccccc3)nn2-c2ccccc2)cc1`, in the data set with RAW264.7 [1], the Activity result is listed as “Non-toxic”.
`Cc1nc(C(=O)N(C)/C=C\c2ccccc2)nn1-c1ccccc1`: in the data set with RAW264.7 [1], the Activity result is listed as “Non-toxic”.
The same measure, in the same setting: under `CN(/C=C\c1ccccc1)C(=O)c1nc(-c2ccc(F)cc2)n(-c2ccccc2)n1` stands “Non-toxic”; under `CN(/C=C\c1ccccc1)C(=O)c1nc(-c2cccs2)n(-c2ccccc2)n1`, “Non-toxic”.
Turning to `C[C@@H]1C[C@H]2[C@@H]3CCC4=CC(=O)C=C[C@]4(C)[C@@]3(F)[C@@H](O)C[C@]2(C)[C@@]1(O)C(=O)CO` [DEXAMETHASONE], the outcome with Mus musculus [4], in the data set on Mus musculus [5], in the data set on Mus musculus [7], in the data set with Mus musculus [8], in the data set with Mus musculus [9] and in the data set on Mus musculus [10] was Active. Moreover, the outcome in the data set with Mus musculus [11], in the data set on Mus musculus [12], in the data set with Mus musculus [13], in the data set with RAW264.7 [14], in the data set with RAW264.7 [15] and in the data set on RAW264.7 [16] was Active. Besides, the result in the data set with RAW264.7 [17], in the data set with RAW264.7 [18], in the data set on RAW264.7 [19], with RAW264.7 [20], with Mus musculus [21] and in the data set on RAW264.7 [22] was Active. Also, the Activity in the data set on Mus musculus [6] was 0.126.
